Assay results as given in patent US6974702B2, “Fourier transform mass spectrometry of complex biological samples” (Esperion Therapeutics, Inc., priority 2000, dated 2005).

Experiments:
[1] = HICS-FTMS of plasma from rats treated by oral gavage; type: in vivo; details: rat plasma, 100 mg/kg daily by oral gavage for one week, versus untreated rats
Description: Three rats were treated daily with 100 mg/kg of 6-(6-hydroxy-5,5-dimethylhexyloxy)-2,2-dimethyl-hexan-1-ol by oral gavage, over the course of one week. 6-(6-hydroxy-5,5-dimethylhexyloxy)-2,2-dimethyl-hexon-1-ol increases HDL-cholesterol and improves glucose utilization in experimental rats (see U.S. application Ser. No. 09/540,738 , filed Mar. 31, 2000). At the end of the week, blood was drawn from each of the three rats, as well as from three control (untreated) rats. The blood was allowed to coagulate, and the plasma was prepared for FTMS by adding a water and methanol solution (49:49:2, water:methanol:acetic acid v:v:v) each of the plasma preparations. The mixture was chilled to precipitate the proteins to the bottom of the tube. Each tube was centrifuged, the supernatant decanted and the sample desalted by adding approximately 100 mg of DOWEX ion exchange resin to each vial and incubating the sample with the resin for approximately 10 minutes. The sample was then centrifuged and the supernatant removed. This solution was then introduced to the FT mass spectrometer.

[2] = experimental rats; see U.S. application Ser. No. 09/540,738; cited from earlier work
[3] = tested on: primary rat hepatocyte cells; assay: FTMS of extracts of primary rat hepatocytes treated with lovastatin; type: cell-based; details: lovastatin 0.03 to 30 μM for 4 hours, normalized against untreated
Description: A male Sprague-Dawley rat was anesthetized by administration of sodium pentobarbitol by at 50 mg/kg body mass be intraperitoneal injection. In situ perfusion of the liver was performed as follows. The abdomen of the animal was opened, the portal vein was cannulated, and the liver perfused with WOSH solution (149 mM NaCl, 9.2 mM Na HEPES, 1.7 mM fructose, 0.5 mM EGTA, 10 U/ml heparin, pH 7.5) at a flow rate of 30 ml/min for 6 minutes. To digest the liver, DSC solution (6.7 mM KCl, 143 mM NaCl, 9.2 mM Na HEPES, 5 mM CaCl2-2H2O, 1.7 mM fructose, 0.2% BSA, 100 U/ml collagenase Type I, 80 U/ml, 160 BAEE/ml trypsin inhibitor, pH 7.5) was perfused through the liver at a flow rate of 30 ml/min for 6 minutes at a temperature of 37° C. After digestion, cells were dispersed in a solution of DMEM- (DMEM containing 2mM GlutMax-1, 0.2% BSA, 5% FBS, 12 nM insulin, 1.2 μM hydrocortisone) to stop the digestion process. The crude cell suspension was filtered through three layers of stainless steel mesh with pore sizes of 250, 106, and 75 um respectively. Filtered cells were centrifuged at 50×g for two minutes and the supernatant discarded. […]
All measurements were carried out on a Bruker APEX II FTMS equipped with a 7.0 Tesla magnet. […] The accurate mass data was then analyzed using Tcl/Tk routines, which serially search the mass spectra from each well for chemical composition of metabolic products. […]

SMILES | intensity of FTMS peak of molecular mass approximately 766.4 Daltons [1] | intensity of FTMS peak of molecular mass approximately 766.8 Daltons [1] | HDL-cholesterol [2] | glucose utilization [2] | relative intensity of FTMS peak at molecular mass 85.02815 [3] | relative intensity of FTMS peak at molecular mass 85.64405 [3]
CC(C)(CO)CCCCOCCCCC(C)(C)CO [6-(6-hydroxy-5,5-dimethylhexyloxy)-2,2-dimethyl-hexan-1-ol] | reproducibly higher intensities | reproducibly higher intensities | increases | improves | – | –
CC[C@H](C)C(=O)O[C@H]1C[C@@H](C)C=C2C=C[C@H](C)[C@H](CC[C@@H]3C[C@@H](O)CC(=O)O3)[C@H]21 [lovastatin] | – | – | – | – | decreasing trend | increasing trend
